Reference: patent publication US9051598B2, “Specific detection of D-glucose by a tetraphenylethene-base fluorescent sensor” (THE HONG KONG UNIVERSITY OF SCIENCE AND TECHNOLOGY, priority 2011, dated 2015)
Read-outs that look alike come from different tables or passages of the source.

Assays:
[1] = FL response of TPE boronic acid probe to D-glucose in carbonate buffer
Protocol: The present subject matter in one embodiment relates to a selective detection of D-glucose (D-Glu) by TPEDB probe in a sample with its fluorescence enhancement. The concentration or level of D-Glu detectable in a sample is not particularly limited, but is preferably about 0.2 mM or more. […] When 0.2 mM Glu was added, however, the FL spectrum of TPEDB was intensified. The FL intensity increased with an increase in the amount of Glu. At [Glu]=5 mM, the solution of TPEDB became very emissive, with an intensity ca. 5.4-fold higher than that in the absence of Glu.
(§1) Into a 100 mL volumetric flask were added 1.120 g of K2CO3, 0.190 g of KHCO3 and 80 mL of deionized water. After adding 3 mL of DMSO into the carbonate buffer, 1 mL of the stock solution of TPEDB in DMSO (10 mM) was added under stirring. The volume of the solution was increased to 100 mL by adding an appropriate amount of deionized water. The resultant solution of TPEDB (0.1 mM) in the carbonate buffer (pH 10.5) was stirred for 15 min before use.
Into a 25 mL volumetric flask was added 90 mg of a saccharide (Glu, Fru, Gal or Man) and 25 mL of deionized water. An aliquot of the resultant stock solution (20 mM) was diluted in another volumetric flask to obtain a sample solution with a desired concentration (2.0 mM, 0.20 mM, 20 μM or 2.0 μM).
An aliquot (2.0 mL) of the stock solution of TPEDB (0.1 mM) in the carbonate buffer containing 4 vol % DMSO and 2.0 mL of the stock solution of Glu (20 mM) were added into a 10 mL volumetric flask. After shaking for a few seconds, a solution of TPEDB (50 μM) with 10 mM of Glu in the carbonate buffer containing 2 vol % DMSO was obtained. The solution was allowed to stand for 30 min before its FL measurement.
To prepare a solution of TPEDB (50 μM) with 8 mM of Glu in the carbonate buffer containing 2 vol % DMSO, 1.6 mL of the stock solution of Glu (20 mM) and 0.4 mL of deionized water were added to 2.0 mL of a stock solution of TPEDB (0.1 mM) in the carbonate buffer containing 4 vol % DMSO.

[2] = FL response of probe to D-galactose in carbonate buffer; conditions: TPEMB 10 μM, 10 vol % DMSO, any amount
[3] = FL response of probe to D-mannose in carbonate buffer; conditions: TPEMB 10 μM, 10 vol % DMSO, any amount
[4] = FL response of probe to D-fructose in carbonate buffer
[5] = Detection of Glu in artificial urine by TPEDB; conditions: TPEDB 50 μM, carbonate buffer with artificial urine
Protocol: To explore the potential of TPEDB for real-world applications, the possibility of using TPEDB for detection of Glu in urine was tested. […] The profile of the I/I0 versus [Glu] plot for the urine Glu, however, was different from that for the “pure” Glu (in the carbonate buffer without urine) in the high-[Glu] region. Although the exact reason for this is unclear at the present time, it may be caused by the interactions of urea, α-hydroxycarboxylic acids, and salts in the urine with the boronate units of TPEDB.
An artificial urine was prepared according to the recipe reported by Keevil et al. and Whitesides et al (C. W. Keevil, et al, Lett. Appl. Microbiol. 1997. 24, 203; G. M. Whitesides, et al, Proc. Natl. Acad. Sci. U.S.A. 2008, 105, 19606). 1.1 mM Lactic acid, 2.0 mM citric acid, 25 mM sodium bicarbonate, 170 mM urea, 2.5 mM calcium chloride, 90 mM sodium chloride, 2.0 mM magnesium sulfate, 7.0 mM potassium dihydrogen phosphate, 7.0 mM dipotassium hydrogen phosphate, 10 mM sodium sulfate, and 25 mM ammonium chloride were mixed in deionized water. The pH value of the solution was adjusted to 6.0 by the addition of 1.0 M hydrochloric acid. […]
An aliquot (1 mL) of the artificial urine solution with a desired concentration of Glu was added to 2 mL solution of TPEDB (100 μM) in the carbonate buffer containing 4 vol % DMSO. […] FL spectrum of the mixture was measured after stirring for 30 min.

[6] = FL intensity of TPEDB in Britton-Robinson buffers at different pH; type: physicochemical
Protocol: (§2) The light emission of TPEDB started to decrease in intensity when the pH of the buffer was raised to >8.61 and became very weak at pH≧9.74. Since the pKa of PBA is ca. 9, TPEDB was ionized by the alkaline medium and became soluble in the buffers with high pH. The solutions of TPEDB were virtually nonfluorescent, while its aggregates were highly emissive, proving that TPEDB, like its parent form TPE, is AIE-active.
as §1, with “4.0 mg NaOH” for “1.120 g of K2CO3, 0.190 g of KHCO3”, “NaOH solution (0.001M) containing 4 vol % DMSO” for “carbonate buffer (pH 10.5)”
Into a 100 mL volumetric flask were added 4.611 H3PO4, 2.402 g CH3COOH, and 2.473 g B(OH)3, and the volume of the solution was increased to 100 mL by adding appropriate amount of deionized water. The resultant solution of the acid mixture (0.4 M) was stirred for 15 min before use. Into a 100 mL volumetric flask was added 1.600 g NaOH, and the volume of the solution was increased to 100 mL by adding appropriate amount of deionized water. The resultant solution of base (0.4 M) was stirred for 15 min before use. An aliquot (0.4 mL) of the solution of acid mixture (0.4 M) and appropriate amount of the solution of NaOH (0.4 M) from 0 mL to 1.6 mL were added into a 10 mL volumetric flask. The volume of the solution was increased to 2.0 mL by adding an appropriate amount of deionized water. The resultant standard Britton-Robinson buffer (0.08 M) with various pH was left to stand for a few minutes before use.
An aliquot (2.0 mL) of the stock solution of TPEDB (0.1 mM) in the NaOH solution (0.001M) containing 4 vol % DMSO and 2.0 mL of the standard Britton-Robinson buffer (0.08 M) with various pH were added into a 10 mL volumetric flask. After shaking for a few seconds, solutions of TPEDB (50 μM) with various pH in the Britton-Robinson buffer containing 2 vol % DMSO were obtained. The solutions were allowed to stand for 30 min, and their FL spectra were measured before the pH values were measured using pH-meter.

[7] = FL response of TPEDB to Glu in the presence of a saccharide interferent
Protocol: In the presence of Fru, the FL spectrum of TPEDB was gradually intensified by the addition of Glu, but the rate of increase in the intensity was lower because of the competition between Glu and Fru to bind with TPEDB. Similarly, Gal and Man interfered with the FL response of TPEDB to Glu, although the effects were smaller.
Solutions of Glu (40 mM-4.0 μM), Fru (0.4 mM), Gal (0.4 mM) and Man (0.4 mM) in deionized water were prepared. An aliquot (2.0 mL) of the solution of TPEDB (0.1 mM) in the carbonate buffer containing 4 vol % DMSO was added into a 10 mL volumetric flask, followed by the addition of 1.0 mL of a solution of Fru (0.4 mM) and 1.0 mL of a solution of Glu (40 mM). After shaking for a few seconds, a solution of TPEDB (50 μM) with 10 mM of Glu and 0.1 mM of Fru in the carbonate buffer containing 2% DMSO was obtained. The solution was allowed to stand for 30 min before its FL measurement. The solution of TPEDB and Glu containing another saccharide (Gal or Man) was prepared by similar procedures.

[8] = Miscibility / solubility of TPEDB in aqueous media; type: physicochemical
Source text: as §2

[9] = cited from earlier work
[10] = cited from earlier work; remark: listed apart in the source
[11] = Britton-Robinson buffer, 2 vol % DMSO

OB(O)c1ccc(C(=C(c2ccccc2)c2ccccc2)c2ccccc2)cc1 [TPEMB, 4-(1,2,2-triphenylvinyl)phenylboronic acid]
Change in FL spectrum on addition of Glu ([1]; TPEMB 10 μM, carbonate buffer, 10 vol % DMSO, wide [Glu] range): little change
Emission on addition of Gal [2]: remained nonemissive
Emission on addition of Man [3]: remained nonemissive
Emission on addition of Fru ([4]; TPEMB 10 μM, carbonate buffer, 10 vol % DMSO, any amount): remained nonemissive

OB(O)c1ccc(C(=C(c2ccccc2)c2ccc(B(O)O)cc2)c2ccccc2)cc1 [TPEDB, (1,2-diphenylethene-1,2-diyl)bis(1,4-phenylene)-1,1′-diboronic acid]
Effect of Glu in artificial urine on FL spectrum [5]: augmented its FL spectrum
pH below which the luminogen is highly emissive [6]: < 9.0
pH above which light emission started to decrease in intensity [6, 11]: > 8.61
pH at which light emission became very weak [6, 11]: ≥ 9.74
Emission of aggregates suspended in acidic buffer ([6]; pH 4.34): strong blue light
Glu concentration at which the FL spectrum of TPEDB was intensified (below it almost no change) ([1]; TPEDB 50 μM, carbonate buffer pH 10.5): 0.2 mM
[Glu] at which FL intensity reaches its maximum ([1]; TPEDB 50 μM, carbonate buffer pH 10.5, intensity decreases above): 5 mM
Interference of the isomeric saccharides to the FL response to Glu ([7]; 0.1 mM Fru, Gal or Man interferent, TPEDB 50 μM, carbonate buffer): almost no interference
Affinity order of saccharide to TPEDB ([7]; suggested from interference data): Fru>Gal≈Man>Glu
Solubility in alkaline aqueous media ([8]; alkaline aqueous media containing small amount of DMSO): readily soluble
Miscibility with water ([8]; water): immiscible with water
Change of emission spectrum on addition of Fru ([4]; 10 mM Fru, TPEDB in carbonate buffer): only slightly intensified

OB(O)c1ccccc1 [PBA, phenylboronic acid]
pKa [9]: ca. 9
Ka,sugar/Ka,Glu ([10]; Fru): 34.8
Ka,sugar/Ka,Glu ([10]; Gal): 3.3
Ka,sugar/Ka,Glu ([10]; Man): 2.8
